Measurements from patent US12128064B1, “Polysilane methacrylic compounds and methods of making them” (Zetagen Therapeutics, Inc., priority 2024, dated 2024).

Tested on: BT-474 breast cancer cells
Experiment: Toxicity of the Compound (IVa) polymer in BT-474 cultures
Assay type: cell-based
Conditions: 24-hours
Protocol: The small molecule, N-allyl noroxymorphone hydrochloride, was added to Compound IVa (SiH3—[SiH2]n—SiH2—[C5H7O2]n with Ca10(PO4)6(OH)2) at a concentration of 0.4-mg N-allyl noroxymorphone/mg of Compound IVa. Then the MAGE-Polymerization Initiator Solution containing the vinyl monomer vinyl methacrylate was added in a ratio of 2:1. The material—with N-allyl noroxymorphone hydrochloride—was then polymerized and added to cultures of BT-474 breast cancer cells. Cultures were also treated with N-allyl noroxymorphone hydrochloride alone. Control cultures received no treatment.

SMILES: C=CCN1CC[C@]23c4c5ccc(O)c4O[C@H]2C(=O)CC[C@@]3(O)[C@H]1C5.Cl [N-allyl noroxymorphone hydrochloride]
- Decrease in cell number relative to Control Cultures: 59.7%
